# In patent US8486996B2, “Aroylfuranes and aroylthiophenes” (Basilea Pharmaceutica AG, priority 2006, dated 2013):
# Read-outs that look alike come from different tables or passages of the source.
# What was measured:
# Assay type in all cases: cell-based
# tumor cells [1] = assay: MTS proliferation assay (72 h read-out)
# Method: B) MTS Proliferation Assay
# The assay is performed in 96 well tissue culture plates. The cells (range: 1.5*10^3-10^4) are seeded out in 80 μl complete medium 24 h prior to compound treatment. The test compounds are added in 20 μl complete medium containing max 5% DMSO. The final compound concentrations in the assays are in the range of 0.001 μM-10 μM. The assay plates are incubated for 72 h at culture conditions. The MTS reagent is prepared according to the manufacturer's protocol (Promega G1111). 20 μl MTS reagent are added to each well; the assay plates are quickly spun and incubated for another 3 h at culture conditions. Subsequently, the plates are shortly shaked and absorption measured with a microplate-reader at 492 nm. The scores A, B, C and D are explained at the end of the Table.
# tumor cells [2] = assay: Hoechst 33342 nuclear staining (48 h read-out)
# Method: (§1) A) Hoechst 33342 Nuclear Staining
# (§2) This assay is performed in 96 well tissue culture plates. Appropriate number of cells (adherent cells: 3-5*10^3, suspension cells: 8-10*10^3) are being seeded out in 80 μl complete medium. Adherent cells are incubated for 24 h for proper spreading out before addition of test compounds while suspension cells are immediately treated with test compounds after seeding out. The test compounds are added in 20 μl complete medium containing max 5% DMSO. The final compound concentrations in the assays are in the range of 0.001 μM-10 μM. After 24 h or 48 h incubation at culture conditions, 10 μl medium containing Hoechst 33342 dye (Sigma B-2261) at 2-5 μg/ml are added to each well. The assay plates are then further incubated for 30 minutes and subsequently analyzed with a standard inverted fluorescence microscope.
# (§3) The readout allows the determination of the fraction of apoptotic nuclei as well as other morphological criteria specific for apoptosis as a function of the treatment. The scores A, B, C and D are explained at the end of the Table.
# [3] = Hoechst 33342 nuclear staining (48 h read-out); conditions: MRC5 cells, read-out: Hoechst 33342 nuclear staining EC50, MRC5
# Method: as §1, §2, §3
# tumor cells [4] = assay: Mitochondrial membrane potential, JC-1 (read-out 48 h); conditions: JC-1, 48 h
# Method: D) Mitochondrial Membrane Potential
# as §2, with “The final compound concentrations in the assays are in the range of 0.001 μM-10 μM.” left out, “JC-1 (Molecular Probes, T-3168)” for “Hoechst 33342 dye (Sigma B-2261)”, “microscope by using the FITC and TRITC filters.” for “microscope.”
# The readout allows the determination of the fraction of cells which show a dissipation of the mitochondrial membrane potential strongly indicating an apoptotic cell death as a function of the treatment. The scores A, B, C and D are explained at the end of the Table.
# [5] = Homo sapiens, HT-1080, HT1080 cells, read-out: MTS proliferation assay IC50, HT1080
# [6] = Homo sapiens, HeLa cells, read-out: MTS proliferation assay IC50, HeLa
# [7] = Homo sapiens, Jurkat cells, read-out: MTS proliferation assay IC50, Jurkat
# [8] = Jily cells, read-out: MTS proliferation assay IC50, Jily
# [9] = Homo sapiens, HeLa cells, read-out: Hoechst 33342 nuclear staining EC50, HeLa
# [10] = Homo sapiens, Jurkat cells, read-out: Hoechst 33342 nuclear staining EC50, Jurkat
# [11] = Homo sapiens, HeLa cells, read-out: Mitochondrial membrane potential (read-out 48 h) HeLa
# [12] = Homo sapiens, Jurkat cells, read-out: Mitochondrial membrane potential (read-out 48 h) Jurkat
# [13] = Homo sapiens, MCF7 cells, read-out: Mitochondrial membrane potential (read-out 48 h) MCF7
# [14] = Jily cells, read-out: Mitochondrial membrane potential (read-out 48 h) Jily
# [15] = HT1080 cells, read-out: MTS proliferation assay IC50, HT1080
# [16] = HeLa cells, read-out: MTS proliferation assay IC50, HeLa
# [17] = Jurkat cells, read-out: MTS proliferation assay IC50, Jurkat
# [18] = HeLa cells, read-out: Hoechst 33342 nuclear staining EC50, HeLa
# [19] = Jurkat cells, read-out: Hoechst 33342 nuclear staining EC50, Jurkat
# [20] = HeLa cells, read-out: Mitochondrial membrane potential (read-out 48 h) HeLa
# [21] = Jurkat cells, read-out: Mitochondrial membrane potential (read-out 48 h) Jurkat
# [22] = MCF7 cells, read-out: Mitochondrial membrane potential (read-out 48 h) MCF7
SMILES,IC50 (tumor cells [1]; [5]) [nM],IC50 (tumor cells [1]; [6]) [nM],IC50 (tumor cells [1]; [7]) [nM],IC50 (tumor cells [1]; [8]) [nM],EC50 (tumor cells [2]; [9]) [nM],EC50 (tumor cells [2]; [10]) [nM],EC50 ([3]; Homo sapiens) [nM],EC50 (tumor cells [4]; [11]) [nM],EC50 (tumor cells [4]; [12]) [nM],EC50 (tumor cells [4]; [13]) [nM],EC50 (tumor cells [4]; [14]) [nM],IC50 (tumor cells [1]; [15]) [nM],IC50 (tumor cells [1]; [16]) [nM],IC50 (tumor cells [1]; [17]) [nM],EC50 (tumor cells [2]; [18]) [nM],EC50 (tumor cells [2]; [19]) [nM],EC50 [3] [nM],EC50 (tumor cells [4]; [20]) [nM],EC50 (tumor cells [4]; [21]) [nM],EC50 (tumor cells [4]; [22]) [nM]
"CCOc1ccc(F)cc1C(=O)c1sc2nc(C)c(C)cc2c1N [Example 118, 5,6-Dimethyl-3-amino-2-(2′-ethoxy-5′-fluorobenzoyl)-thieno[2,3-b]pyridine]",10 to 100,10 to 100,10 to 100,10 to 100,10 to 100,10 to 100,10 to 100,100 to 1000,10 to 100,> 1000,10 to 100,–,–,–,–,–,–,–,–,–
"Cc1cc2c(N)c(C(=O)c3cc(F)ccc3N3CCOCC3)sc2nc1C [Example 119, 5,6-Dimethyl-3-amino-2-(2′-N-morpholino-5′-fluorobenzoyl)-thieno[2,3-b]pyridin]",10 to 100,100 to 1000,10 to 100,10 to 100,100 to 1000,10 to 100,10 to 100,> 1000,100 to 1000,> 1000,100 to 1000,–,–,–,–,–,–,–,–,–
"CCOc1ccc(F)cc1C(=O)c1sc2ncc(C#N)cc2c1N [Example 120, 5-Cyano-3-amino-2-(2′-ethoxy-5′-fluorobenzoyl)-thieno[2,3-b]pyridine]",100 to 1000,100 to 1000,100 to 1000,100 to 1000,> 1000,100 to 1000,100 to 1000,> 1000,100 to 1000,> 1000,100 to 1000,–,–,–,–,–,–,–,–,–
Nc1c(C(=O)c2ccccc2N2CCCCC2)sc2ncccc12 [Example 121],–,–,–,> 1000,–,–,–,–,–,–,> 1000,> 1000,> 1000,> 1000,> 1000,> 1000,> 1000,> 1000,> 1000,> 1000
Nc1c(C(=O)c2ccccc2N2CCOCC2)sc2ncccc12 [Example 122],–,–,–,> 1000,–,–,–,–,–,–,> 1000,> 1000,> 1000,> 1000,> 1000,> 1000,> 1000,> 1000,> 1000,> 1000
Nc1c(C(=O)c2ccccc2N2CC=CCC2)sc2ncccc12 [Example 123],–,–,–,> 1000,–,–,–,–,–,–,> 1000,> 1000,> 1000,> 1000,> 1000,> 1000,> 1000,> 1000,> 1000,> 1000
Nc1c(C(=O)c2cc(F)ccc2N2CCCCC2)sc2ncccc12 [Example 124],–,–,–,> 1000,–,–,–,–,–,–,> 1000,> 1000,> 1000,> 1000,> 1000,> 1000,> 1000,> 1000,> 1000,> 1000
Nc1c(C(=O)c2cc(F)ccc2N2CCOCC2)sc2ncccc12 [Example 125],–,–,–,100 to 1000,–,–,–,–,–,–,100 to 1000,> 1000,> 1000,100 to 1000,> 1000,> 1000,> 1000,> 1000,100 to 1000,> 1000
Nc1c(C(=O)c2cc(F)ccc2N2CC=CCC2)sc2ncccc12 [Example 126],–,–,–,100 to 1000,–,–,–,–,–,–,100 to 1000,100 to 1000,> 1000,100 to 1000,> 1000,> 1000,> 1000,> 1000,100 to 1000,> 1000
